System: human lung cancer cell line H1299
Experiment: Inhibition of cell proliferation (GI50) in H1299 cells
Type: cell-based
Settings: NCI-H1299, Table III, 48 h
Experimental: Human breast cancer cell lines T-47D, MX-1 and MDAMB435, human colon cancer cell line HT29, and human lung cancer cell line H1299 were grown and harvested as in Example 75. An aliquot of […] of cells (4.4×10^4 cells/mL) was added to a well of a 96-well microtiter plate containing 5 μL of a 10% DMSO in RPMI-1640 media solution containing 10 nM to 100 μM of N-(2,5-dimethoxyphenyl)-2-methylthieno[3,2-d]pyrimidin-4-amine (1 nM to 10 μM final). An aliquot of 45 μL of cells was added to a well of a 96-well microtiter plate containing 5 μL of a 10% DMSO in RPMI-1640 media solution without compound as the control sample for maximal cell proliferation (Lmax). The samples were mixed by agitation and then incubated at 37° C. for 48 h in a 5% CO2-95% humidity incubator. After incubation, the samples were removed from the incubator and 25 μL of CellTiter-Glo™ reagent (Promega) was added. The samples were mixed by agitation and incubated at room temperature for 10-15 min. Plates were then read using a luminescent plate reader (Model SPECTRAfluor Plus, Tecan) to give Ltest values.
Baseline for GI50 (dose for 50% inhibition of cell proliferation) of initial cell numbers was determined by adding an aliquot of 45 μL of cells or 45 μL of media, respectively, to wells of a 96-well microtiter plate containing 5 μL of a 10% DMSO in RPMI-1640 media solution. The samples were mixed by agitation and then incubated at 37° C. for 0.5 h in a 5% CO2-95% humidity incubator. After incubation, the samples were removed from the incubator and 25 μL of CellTiter-Glo™ reagent (Promega) was added. The samples were mixed by agitation and incubated at 37° C. for 10-15 min at room temperature in a 5% CO2-95% humidity incubator. Fluorescence was read as above, (LStart) defining luminescence for initial cell number used as baseline in GI50 determinations.
GI50 (dose for 50% inhibition of cell proliferation) is the concentration where [(LTest−Lstart)/(LMax−Lstart)]=0.5.

- GI50: 1040 nM
SMILES: COc1ccc(OC)c(Nc2ncnc3ccsc23)c1 [Example 2, N-(2,5-Dimethoxyphenyl)thieno[3,2-d]pyrimidin-4-amine]

Reference: patent publication US20070099877A1, “N-aryl-thienopyrimidin-4-amines and analogs as activators of caspases and inducers of apoptosis and the use thereof” (Cytovia, Inc., priority 2005, published 2007)
